Laboratory results published in patent publication US12178842B2, “PCSK9 antagonist compounds” (MERCK SHARP & DOHME LLC, priority 2019, dated 2024).

Legend:
Format in all cases: binding
PCSK9 [1] = biological target: T1, PCSK9 (Homo sapiens, UniProt Q8NBP7); assay: PCSK9 Alexa FRET Standard TR-FRET assay; conditions: Ki calculated from IC50 and KD of AF cyclic peptide Reagent A; 0.5 nM PCSK9, 20 nM AF cyclic peptide; read-out: Alexa FRET Stdt TR-FRET
T1 construct: biotin (biotinylated); purchased
T1 sequence (Q8NBP7 153-692): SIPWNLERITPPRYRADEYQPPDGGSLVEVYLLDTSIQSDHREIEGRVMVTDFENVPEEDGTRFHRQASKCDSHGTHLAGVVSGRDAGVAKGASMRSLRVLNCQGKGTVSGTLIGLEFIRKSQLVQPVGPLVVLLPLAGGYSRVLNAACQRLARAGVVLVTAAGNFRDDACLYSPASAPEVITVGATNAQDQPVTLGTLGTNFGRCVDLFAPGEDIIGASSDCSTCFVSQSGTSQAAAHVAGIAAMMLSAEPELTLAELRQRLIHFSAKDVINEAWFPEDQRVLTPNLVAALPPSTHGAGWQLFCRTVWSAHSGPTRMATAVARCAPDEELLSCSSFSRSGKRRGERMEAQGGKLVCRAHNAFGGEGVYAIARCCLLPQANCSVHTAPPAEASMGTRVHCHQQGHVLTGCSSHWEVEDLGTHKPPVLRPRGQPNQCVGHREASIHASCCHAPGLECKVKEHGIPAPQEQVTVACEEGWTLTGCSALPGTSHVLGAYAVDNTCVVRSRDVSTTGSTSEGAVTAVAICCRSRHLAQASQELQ
Protocol: A solution containing 1 nM biotinylated PCSK9+2.5 nM Lance Streptavidin Europium (Strep-Eu) is made in 50 mM HEPES pH 7.4, 0.15 M NaCl, 5 mM CaCl2, 0.01% BSA, and 0.01% Surfactant P20. A separate solution containing 40 nM of the AlexaFluor tagged cyclic peptide is made in the same buffer system. An Echo is used to transfer 0.750 ul of compound to an assay plate followed by the addition of 15 ul of PCSK9+Stept-Eu and 15 ul of AF peptide. The final assay volume is 30.750 ul containing 0.5 nM PCSK9, 1.25 nM Strep-Eu, and 20 nM AF cyclic peptide. The reaction is incubated at room temperature for at least two hours prior to fluorescence measurements using an Envision Multilabel Reader. IC50 values are determined by fitting data to a sigmoidal dose-response curve using nonlinear regression. Ki is then calculated from the Ic50 and the KD of AF cyclic peptide. Counts (B-counts) of the europium-labeled PCSK9 are followed to observe if compounds are adversely PCSK9. A fall off of the B-counts likely indicates a false positive of inhibition. Data from this procedure is reported as “A=‘numerical value’ (nanomolar)”

PCSK9 [2] = biological target: T1, PCSK9; assay: PCSK9 Alexa FRET Plus TR-FRET assay
Protocol: A separate solution containing 1920 nM of the AlexaFluor tagged cyclic peptide is made in the same buffer system. […] The reaction is incubated at room temperature for at least two hours prior to fluorescence measurements using an Envision Multilabel Reader. IC50 values are determined by fitting data to a sigmoidal dose-response curve using nonlinear regression. Ki is then calculated from the Ic50 and the KD of AF cyclic peptide. Counts (B-counts) of the europium-labeled PCSK9 are followed to observe if compounds are adversely affecting PCSK9. A fall off of the B-counts is likely indicates a false positive of inhibition. Data from this procedure is reported as “P=‘numerical value’ (nanomolar)”

PCSK9 [3] = biological target: T1, PCSK9; assay: PCSK9 Alexa FRET Ultra TR-FRET assay
Protocol: A separate solution containing 1920 nM of the AlexaFluor tagged cyclic peptide is made in the same buffer system. […] The reaction is incubated at room temperature for at least two hours prior to fluorescence measurements using an Envision Multilabel Reader. IC50 values are determined by fitting data to a sigmoidal dose-response curve using nonlinear regression. Ki is then calculated from the Ic50 and the KD of AF cyclic peptide. Counts (B-counts) of the europium-labeled PCSK9 are followed to observe if compounds are adversely affecting PCSK9. A fall off of the B-counts is likely indicates a false positive of inhibition. Data from this procedure is reported as “Ki Ultra=‘numerical value’ (data reported is nanomolar)”

[4] = Ki calculated from IC50 and KD of AF cyclic peptide Reagent B, 0.5 nM PCSK9, 960 nM AF cyclic peptide, read-out: Alexa FRET Plus TR-FRET
[5] = Ki Ultra, calculated from IC50 and KD of AF cyclic peptide, 0.5 nM PCSK9, 960 nM AF cyclic peptide, read-out: Alexa FRET Ultra TR-FRET

Row | Compound | Ki (PCSK9 [1]) [nM] | Ki (PCSK9 [2]; [4]) [pM] | Ki (PCSK9 [3]; [5]) [pM] | Ki (PCSK9 [2]) [pM] | Ki (PCSK9 [3]) [pM]
1 | CCCCCCC(=O)NCCCCCCCC(=O)N[C@@H](CCC(=O)NCCOCCOCC(=O)NCCOCCOCC(=O)NCC[N+](C)(C)CCCCCC(=O)NC[C@H]1NC(=O)[C@H](C)NC(=O)CCC(=O)N2CCCCCCn3cc(c4cc(F)ccc43)C[C@@H]3NC(=O)[C@H](Cc4cccc(c4)CNC(=O)CO[C@H]4CCN(C3=O)[C@@H]4C(=O)N[C@@H]([C@@H](C)O)C(=O)N[C@@H](Cc3ccc(OC)cc3)C(=O)N3CCC[C@@]3(C)C(=O)NCCc3ccc(cc3)C2)NC1=O)C(=O)O [Ex-19] | < 1.26 | < 6 | 1 |  | 
2 | CCCCCCC(=O)NCCCCCCCC(=O)NCC[N+](C)(C)CCOCCOCCC(=O)NC[C@H]1NC(=O)[C@H](C)NC(=O)CCC(=O)N2CCCCCCn3cc(c4cc(F)ccc43)C[C@@H]3NC(=O)[C@H](Cc4cccc(c4)CNC(=O)CO[C@H]4CCN(C3=O)[C@@H]4C(=O)N[C@@H]([C@@H](C)O)C(=O)N[C@@H](Cc3ccc(OC)cc3)C(=O)N3CCC[C@@]3(C)C(=O)NCCc3ccc(cc3)C2)NC1=O [Ex-20] | < 1.26 | < 6 | 1 |  | 
3 | CCCCCC/C=C\CCCCCCCC(=O)N[C@@H](CCC(=O)NCCOCCOCC(=O)NCCOCCOCC(=O)NCC[N+](C)(C)CCCCCC(=O)NC[C@H]1NC(=O)[C@H](C)NC(=O)CCC(=O)N2CCCCCCn3cc(c4cc(F)ccc43)C[C@@H]3NC(=O)[C@H](Cc4cccc(c4)CNC(=O)CO[C@H]4CCN(C3=O)[C@@H]4C(=O)N[C@@H]([C@@H](C)O)C(=O)N[C@@H](Cc3ccc(OC)cc3)C(=O)N3CCC[C@@]3(C)C(=O)NCCc3ccc(cc3)C2)NC1=O)C(=O)O [Ex-21] | < 1.26 | 10 | 1 |  | 
4 | COc1ccc(C[C@@H]2NC(=O)[C@H]([C@@H](C)O)NC(=O)[C@@H]3[C@@H]4CCN3C(=O)[C@@H]3Cc5cn(c6ccc(F)cc56)CCCCCCN(Cc5ccc(cc5)CCNC(=O)[C@]5(C)CCCN5C2=O)C(=O)CCC(=O)N[C@@H](C)C(=O)N[C@H](CNC(=O)CCOCCOCC[N+](C)(C)CCNC(=O)COCCOCCNC(=O)COCCOCCNC(=O)CC[C@H](NC(=O)CCCCCCCCCCCCCCCCC(=O)O)C(=O)O)C(=O)N[C@@H](Cc2cccc(c2)CNC(=O)CO4)C(=O)N3)cc1 [Ex-22] | < 1.26 | 15 | 4 |  | 
5 | COc1ccc(C[C@@H]2NC(=O)[C@H]([C@@H](C)O)NC(=O)[C@@H]3[C@@H]4CCN3C(=O)[C@@H]3Cc5cn(c6ccc(F)cc56)CCCCCCN(Cc5ccc(cc5)CCNC(=O)[C@]5(C)CCCN5C2=O)C(=O)CCC(=O)N[C@@H](C)C(=O)N[C@H](CNC(=O)CCOCCOCC[N+](C)(C)CCNC(=O)CCCCCCCCCCCCCCCCC(=O)O)C(=O)N[C@@H](Cc2cccc(c2)CNC(=O)CO4)C(=O)N3)cc1 [Ex-23] | < 1.26 | < 6 | 7 |  | 
6 | COc1ccc(C[C@@H]2NC(=O)[C@H]([C@@H](C)O)NC(=O)[C@@H]3[C@@H]4CCN3C(=O)[C@@H]3Cc5cn(c6ccc(F)cc56)CCCCCCN(Cc5ccc(cc5)CCNC(=O)[C@]5(C)CCCN5C2=O)C(=O)CCC(=O)N[C@@H](C)C(=O)N[C@H](CNC(=O)CCOCCOCCNC(=O)CCCCCCCCCCCCCCCCC(=O)O)C(=O)N[C@@H](Cc2cccc(c2)CNC(=O)CO4)C(=O)N3)cc1 [Ex-24] | < 1.26 | 9 | 18 |  | 
7 | COc1ccc(C[C@@H]2NC(=O)[C@H]([C@@H](C)O)NC(=O)[C@@H]3[C@@H]4CCN3C(=O)[C@@H]3Cc5cn(c6ccc(F)cc56)C/C=C/CCCN(Cc5ccc(cc5)CCNC(=O)[C@]5(C)CCCN5C2=O)C(=O)CCC(=O)N[C@@H](C)C(=O)N[C@H](CNC(=O)CCCCC[N+](C)(C)CCNC(=O)COCCOCCNC(=O)COCCOCCNC(=O)CC[C@H](NC(=O)CCCCCCCCCCCCCCCCC(=O)O)C(=O)O)C(=O)N[C@@H](Cc2cccc(c2)CNC(=O)CO4)C(=O)N3)cc1 [Ex-25] | < 1.26 | 6 | 9 |  | 
8 | COc1ccc(C[C@@H]2NC(=O)[C@H]([C@@H](C)O)NC(=O)[C@@H]3[C@@H]4CCN3C(=O)[C@@H]3Cc5cn(c6ccc(F)cc56)CCCCCCN(Cc5ccc(cc5)CCNC(=O)[C@]5(C)CCCN5C2=O)C(=O)CCC(=O)N[C@@H](C)C(=O)N[C@H](CNC(=O)CCCCC[N+](C)(C)CCNC(=O)COCCOCCNC(=O)COCCOCCNC(=O)CC[C@H](NC(=O)CCCCCCCCCCCCCCCCCCC(=O)O)C(=O)O)C(=O)N[C@@H](Cc2cccc(c2)CNC(=O)CO4)C(=O)N3)cc1 [Ex-27] | < 1.26 |  |  | 14 | 6

Continued, in another order:

Row | Ki (PCSK9 [1]) [nM] | Ki (PCSK9 [2]; [4]) [pM] | Ki (PCSK9 [3]; [5]) [pM] | Compound | Ki (PCSK9 [2]) [pM] | Ki (PCSK9 [3]) [pM]
9 | < 1.26 | 6 | 8 | COc1ccc(C[C@@H]2NC(=O)[C@H]([C@@H](C)O)NC(=O)[C@@H]3[C@@H]4CCN3C(=O)[C@@H]3Cc5cn(c6ccc(F)cc56)CCCCCCN(Cc5ccc(cc5)CCNC(=O)[C@]5(C)CCCN5C2=O)C(=O)CCC(=O)N[C@@H](C)C(=O)N[C@H](CNC(=O)CCCCC[N+](C)(C)CCNC(=O)CCCCC[N+](C)(C)CCNC(=O)COCCOCCNC(=O)COCCOCCNC(=O)CC[C@H](NC(=O)CCCCCCCCCCCCCCCCC(=O)O)C(=O)O)C(=O)N[C@@H](Cc2cccc(c2)CNC(=O)CO4)C(=O)N3)cc1 [Ex-26] |  | 
10 | < 1.26 | 13 | 10 | COc1ccc(C[C@@H]2NC(=O)[C@H]([C@@H](C)O)NC(=O)[C@@H]3[C@@H]4CCN3C(=O)[C@@H]3Cc5cn(c6ccc(F)cc56)CCCCCCN(Cc5ccc(cc5)CCNC(=O)[C@]5(C)CCCN5C2=O)C(=O)CCC(=O)N[C@@H](C)C(=O)N[C@H](CNC(=O)COCCOCCOCCOCCNC(=O)CCCCC[N+](C)(C)CCNC(=O)COCCOCCNC(=O)COCCOCCNC(=O)CC[C@@H](NC(=O)CCCCCCCCCCCCCCCCC(=O)O)C(=O)O)C(=O)N[C@@H](Cc2cccc(c2)CNC(=O)CO4)C(=O)N3)cc1 [Ex-28] |  | 
11 | < 1.26 | 11 | 13 | COc1ccc(C[C@@H]2NC(=O)[C@H]([C@@H](C)O)NC(=O)[C@@H]3[C@@H]4CCN3C(=O)[C@@H]3Cc5cn(c6ccc(F)cc56)CCCCCCN(Cc5ccc(cc5)CCNC(=O)[C@]5(C)CCCN5C2=O)C(=O)CCC(=O)N[C@@H](C)C(=O)N[C@H](CNC(=O)COCCOCCNC(=O)COCCOCCNC(=O)CCOCCOCC[N+](C)(C)CCNC(=O)COCCOCCNC(=O)COCCOCCNC(=O)CC[C@H](NC(=O)CCCCCCCCCCCCCCCCC(=O)O)C(=O)O)C(=O)N[C@@H](Cc2cccc(c2)CNC(=O)CO4)C(=O)N3)cc1 [Ex-29] |  | 
12 | < 1.26 | < 6 | 6 | COc1ccc(C[C@@H]2NC(=O)[C@H]([C@@H](C)O)NC(=O)[C@@H]3[C@@H]4CCN3C(=O)[C@@H]3Cc5cn(c6ccc(F)cc56)CCCCCCN(Cc5ccc(cc5)CCNC(=O)[C@]5(C)CCCN5C2=O)C(=O)CCC(=O)N[C@@H](C)C(=O)N[C@H](CNC(=O)COCCOCC[N+](C)(C)CCOCCNC(=O)COCCOCCNC(=O)COCCOCCNC(=O)CC[C@H](NC(=O)CCCCCCCCCCCCCCCCC(=O)O)C(=O)O)C(=O)N[C@@H](Cc2cccc(c2)CNC(=O)CO4)C(=O)N3)cc1 [Ex-31] |  | 
13 | < 1.26 | < 6 | 3 | COc1ccc(C[C@@H]2NC(=O)[C@H]([C@@H](C)O)NC(=O)[C@@H]3[C@@H]4CCN3C(=O)[C@@H]3Cc5cn(c6ccc(F)cc56)CCCCCCN(Cc5ccc(cc5)CCNC(=O)[C@]5(C)CCCN5C2=O)C(=O)CCC(=O)N[C@@H](C)C(=O)N[C@H](CNC(=O)CCOCCOCC[N+](C)(C)CCNC(=O)COCCOCCNC(=O)COCCOCCNC(=O)CC[C@H](NC(=O)CC[C@H](NC(=O)CCCCCCCCCCCCCCC(=O)O)C(=O)O)C(=O)O)C(=O)N[C@@H](Cc2cccc(c2)CNC(=O)CO4)C(=O)N3)cc1 [Ex-34] |  | 
14 | < 1.26 | 7 | 9 | COc1ccc(C[C@@H]2NC(=O)[C@H]([C@@H](C)O)NC(=O)[C@@H]3[C@@H]4CCN3C(=O)[C@@H]3Cc5cn(c6ccc(F)cc56)CCCCCCN(Cc5ccc(cc5)CCNC(=O)[C@]5(C)CCCN5C2=O)C(=O)CCC(=O)N[C@@H](C)C(=O)N[C@H](CNC(=O)COCC[N+](C)(C)CCOCCNC(=O)COCCOCCNC(=O)COCCOCCNC(=O)CC[C@H](NC(=O)CCCCCCCCCCCCCCCCC(=O)O)C(=O)O)C(=O)N[C@@H](Cc2cccc(c2)CNC(=O)CO4)C(=O)N3)cc1 [Ex-35] |  | 
